From paper PMC10507807, “De novo design of a stapled peptide targeting SARS-CoV-2 spike protein receptor-binding domain” (RSC Medicinal Chemistry, 2023)
Starred links: 1 amine or outer side, 2 acyl side, 3 side chain; linkers in the order of their positions; H or OH if unused. Positions of bridges follow the written chain, without caps; N, C: chain ends. Non-standard residues stand in square brackets, D forms with d. Residues, ends and D or L forms follow the SMILES beside them. X1 = C[C@@](CC=[*:3])(N[*:1])C(=O)[*:2]

Assays:
Vero E6 cells = conditions: MTT, 0.05–50 μM pep39, 48 h
[1] = system: SARS-CoV-2 spike protein RBD; format: binding

## CSCC[C@@H]1NC(=O)[C@H](CC(N)=O)NC(=O)[C@@H]2CC(=O)NCCCC[C@H](NC(=O)[C@H](Cc3c[nH]c4ccccc34)NC(=O)[C@@H](NC(=O)[C@H](CCCCN)NC(=O)[C@H](Cc3ccc(O)cc3)NC(=O)[C@H](CC(C)C)NC(=O)[C@H](Cc3c[nH]c4ccccc34)NC(=O)[C@H](CCC(=O)O)NC(=O)[C@@H](NC(=O)CNC(C)=O)[C@@H](C)O)C(C)C)C(=O)N[C@@H](C)C(=O)N[C@@H](Cc3ccccc3)C(=O)N[C@@](C)(C/C=C/C[C@@](C)(C(=O)O)NC1=O)C(=O)N2 [pep39] (Ac-GTEWLYKVWKAF[X1]DNM[X1]-OH; lactam 10-14; staple (E) 13-17)
Vero E6 cells; P < 0.05 vs PBS
  concentration at which significant inhibition of cell growth was observed: ≥ 50 µM
Vero E6 cells; vs PBS
  concentration above which cell growth is dose dependently inhibited: higher than 0.5 μM
[1]
  confirmation of binding to spike protein RBD: able to confirm the binding of pep39 on the surface of the spike protein RBD
[1]; pH 7.4
  maximum micro-cantilever deflection: 33.27 nm
  minimum micro-cantilever deflection: 8.46 nm
